{
  "source": "patent US12583939B2",
  "about": "“Bispecific antigen binding molecules that bind HER2, and methods of use thereof” (Regeneron Pharmaceuticals, Inc., priority 2020, dated 2026)",
  "key": {"[1]": {"tested_on": "T47D cells", "test": "Internalization and cluster formation, 3D spheroids", "format": "cell-based", "settings": "3D Spheroids (SD55); 10 ug/mL", "method": "(§1) For 2D monolayer assays, T47D cells were plated on collagen-coated 96-well optical plates (Greiner, Cat #655936) at 25,000 cells/well in complete media and incubated overnight at 37° C. in 5% CO2. For 3D spheroids, cells were plated in low adhesion 96-well plates (Corning #4515) at 10,000 cells/well and incubated for 72 hours. The day of the assay, cells were incubated for 30 minutes with cold (4° C.) media containing 10 ug/mL of Alexa647 (Thermo, Cat #A37573) labeled antibodies. After, cells were washed twice (5 minutes, 100 ul, 4° C., complete medium) and incubated in complete media at 37° C. for 60 minutes. Cells were incubated for 30 minutes with cold (4° C.) media containing 4 ug/mL of Alexa488 anti-Human Fab (Jackson #109-547-003). […] After, the solution was replaced with PBS. Images were acquired with a Zeiss Spinning Disc Confocal Microscope and analyzed using Zeiss Zen Blue software. Quantification of the number of intracellular vesicles and surface clusters was performed in single confocal sections of representative images."}, "[2]": {"tested_on": "T47D cells", "test": "Internalization and cluster formation, 2D monolayers", "format": "cell-based", "settings": "2D monolayers (SD53); 10 ug/mL", "method": "as §1"}, "[3]": {"molecular_target": "T1, hErbB2-MMH (Homo sapiens, UniProt P04626)", "T1 construct": "myc-myc-hexahistidine (C); made in house", "test": "Surface plasmon resonance binding kinetics at 25° C.", "method": "Equilibrium dissociation constants (KD values) for hErbB2.mmh binding to anti-HER2×HER2 antibodies conjugated with either M830 or M1 were determined using a real-time surface plasmon resonance biosensor assay on a MASS-2 instrument. The MASS-2 sensor surface was derivatized by amine coupling with a monoclonal mouse anti-human Fc antibody (REGN2567) to capture anti-HER2×HER2 ADC and parent unmodified antibodies expressed with human constant regions. […] Human hErbB2 was prepared in-house expressing a C-terminal myc-myc-hexahistidine tag (hErbB2-MMH). […] Association of hErbB2-MMH to each of the captured ADCs and monoclonal antibodies was monitored for 3 minutes. Subsequently, hErbB2-MMH dissociation was monitored for 10 minutes in HBS-EP running buffer. Anti-human Fc surface was regenerated by a brief injection of 20 mM H3PO4. All binding kinetic experiments were performed at 25° C.\nKinetic association (ka) and dissociation (kd) rate constants were determined by fitting the real-time sensorgrams to a 1:1 binding model using Scrubber 2.0c curve fitting software. All sensorgrams were double referenced by subtracting buffer injection sensorgram signal from the corresponding analyte sensorgram, thereby removing artifacts caused by dissociation of the antibody from the capture surface. Binding dissociation equilibrium constants (KD) and dissociative half-lives (t½) were calculated from the kinetic rate constants as: […]"}},
  "data": [
    {"substance": "CompAb2: parental HER2×HER2 bispecific antibody of MEDI4276 (SEQ ID NO: 52 and 53) [reference compound]", "values": [
      {"measurement": "Cluster %", "setting": "[1]", "result": 41, "unit": "%"},
      {"measurement": "Internalized Vesicles %", "setting": "[1]", "result": 100, "unit": "%"},
      {"measurement": "Cluster %", "setting": "[2]", "result": 28, "unit": "%"},
      {"measurement": "Internalized Vesicles %", "setting": "[2]", "result": 100, "unit": "%"},
      {"measurement": "Antigen Bound", "setting": "[3]", "result": 177.8, "unit": "RU"},
      {"measurement": "ka", "setting": "[3]", "result": 290000, "unit": "M⁻¹ s⁻¹"},
      {"measurement": "kd", "setting": "[3]", "result": "≤1e-05", "unit": "s⁻¹"}
    ]}
  ]
}
